Results from article PMC10218862 (2023).

System: Tel22 (DNA, G4) AGGGTTAGGGTTAGGGTTAGGG
Assay: CD melting, SVD global fit
Conditions: 150 mM KCl; 50 mM phosphate, 0.3 mM EDTA, pH 7; 60 μM ligand, 30 μM DNA; not irradiated; 3–4

## C[n+]1ccc(-c2c3nc(c(-c4cc[n+](C)cc4)c4ccc([nH]4)c(-c4cc[n+](C)cc4)c4nc(c(-c5cc[n+](C)cc5)c5ccc2[nH]5)C=C4)C=C3)cc1
  Tm: ~ 3 degrees
